Reference: the METLIN SMRT retention time set (Domingo-Almenara et al. 2019)

Experiment: gradient 5% acetonitrile 3 min, to 50% in 2 min, to 85% in 15 min, held 3 min, 100 µL/min
Conditions: column: Zorbax Extend-C18 2.1 x 50 mm; eluents: water / acetonitrile, 0.1% formic acid
How it was run: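 Over 3 months, pure standards in mixtures of ~100 molecules were run by HPLC coupled to a quadrupole time-of-flight mass spectrometer in positive and negative ionization mode. The column was a Zorbax Extend-C18 (2.1 × 50 mm, 1.8 μm) at 100 μL/min, eluted with water and acetonitrile each holding 0.1% formic acid, with 40 μL dead and 900 μL dwell volumes. Retention time was determined from adduct peaks chosen by software and checked manually.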

RP-LC retention time [s]	Structure (SMILES)
845	O=C(O)c1ccc2c(c1)nc(Nc1cccc(Cl)c1)c1ccncc12
796	CSc1ccccc1C(=O)NCc1cc(-c2cccs2)on1
925	Cc1ccc(CNC(=O)Cn2c3ccccc3c3cnn(C)c(=O)c32)o1
603	Cc1ccc(C)c(NC(=O)c2cn3c(n2)CCCC3)c1
1090	O=C(C1=Cc2ccccc2OC=C1)N1CCc2ccccc2C1
654	Cc1nncn1C1CN(C(=O)c2ccc(OC(F)(F)F)cc2)C1
1220	COc1ccc(NC(=O)N2c3ccccc3CC2c2nc(C(C)C)no2)c(C)c1 (stereo not drawn)
756	CCN1C(=O)c2cccnc2Sc2cc(NC(=O)c3ccc(OC)nc3)ccc21
754	CC1CN(C(=O)c2cccc3c2-c2ccccc2C3=O)CC(C)O1 (stereo not drawn)
1110	Cc1cccc(-c2nc(C3CC(=O)N(c4ccc(Cl)cc4)C3)no2)c1 (stereo not drawn)
1040	COc1cccc(-c2nc(C3CCN(C(=O)c4cc5ccccc5[nH]4)CC3)no2)c1
783	COCCNc1c(-c2cccc(F)c2)nc2sc(C(=O)N3CCCC3)c(C)n12
694	COCCn1cc(CCNC(=O)Nc2ccccc2C)c2cccnc21
936	O=C(Nc1ncc(-c2ccccc2)s1)c1ccccc1Br
943	Fc1ccc(Cc2noc(-c3nc(-c4ccncc4)no3)n2)cc1
913	Fc1ccc(OCc2nnc3sc(Cc4ccc5c(c4)OCCO5)nn23)cc1
808	O=C(Cn1c2ccccc2c2ncn(Cc3nc(C4CC4)no3)c(=O)c21)Nc1ccc2c(c1)OCCO2
744	CC(=O)c1cccc(NC2=NS(=O)(=O)c3ccccc32)c1
859	O=C(NC1CC1)c1nnn2c1COC(c1ccc(Cl)cc1)C2 (stereo not drawn)
692	COc1ccc(NC(=O)N2CCCC(Cn3cnc4cccnc43)C2)cc1Cl (stereo not drawn)
710	COc1ccc(C(=O)Nc2ccc3c(c2)Sc2ncccc2C(=O)N3C)cn1
982	CCN1C(=O)C(C)(C(=O)Nc2cc(C)cc(C)c2)Oc2cccnc21 (stereo not drawn)
1050	CCOC(=O)Cn1cc(-c2nc(-c3ccc(Br)cc3)no2)ccc1=O
1050	CSc1cccc(NC(=O)Cn2c(-c3ccccc3)nc(C)cc2=O)c1
814	Cc1c(Cl)cccc1N1C(=O)CN(S(C)(=O)=O)CC1(C)C(=O)NCc1ccc(F)cc1 (stereo not drawn)
859	O=C(NCCc1c[nH]c2ccccc12)c1cc(-c2ccc(F)cc2)c[nH]1
686	O=C(Nc1cccc(F)c1)Nc1ccc2nncn2c1

Second part, the compound before the results:

Structure (SMILES)	RP-LC retention time [s]
COc1ccc(-c2noc(C3CC(=O)N(c4cc(Cl)ccc4OC)C3)n2)c(OC)c1 (stereo not drawn)	1010
COc1ccc(S(=O)(=O)N2CCC(C(=O)NCCc3csc(-c4ccccc4)n3)CC2)cc1	912
CCc1ccccc1NC(=O)N1CCCC1c1cc(C)on1 (stereo not drawn)	774
CCN1C=C(C(=O)OCc2cc(F)cc(F)c2)C(C)=NS1(=O)=O	926
CN(CC1CCOCC1)C(=O)Cc1ccccc1Cl	771
Cc1nc([N+](=O)[O-])cn1-c1nc2ccccn2c1[N+](=O)[O-]	753
CCC(Oc1ccc(=O)n(-c2cc(Cl)ccc2C)n1)C(=O)NCCOC (stereo not drawn)	698
Cc1nc(C)c(-c2ccc(=O)[nH]n2)s1	558
Cc1ccc(-c2c(C#N)c(N)nc(SCC(=O)NCc3ccccc3)c2C#N)cc1	844
CCn1ccc2sc(C)c(C(=O)NCc3cc(C)ccc3C)c2c1=O	959
O=C(Cn1c(CN2CCCCCC2)nc2ccccc21)N1CCOCC1	596
O=C(NCCc1csc(-c2cccs2)n1)C1CCN(S(=O)(=O)Cc2ccccc2)CC1	855
O=C(NCc1csc(-c2ccccc2)n1)C1CCN(S(=O)(=O)c2ccc(Cl)s2)CC1	995
CC(C)n1cc(C2=CCN(C(=O)NC3CCCC3)CC2)c2cccnc21	878
CCc1ccc(-c2noc(CN3C(=O)COc4cc(Cl)ccc43)n2)cc1	1240
CC1CCN(C(=O)c2cc(S(=O)(=O)N3CCCC(C(=O)Nc4nccs4)C3)c[nH]2)CC1 (stereo not drawn)	756
CCOc1ccc(-c2noc(Cn3nc(-c4ccc(CC)cc4)ccc3=O)n2)cc1	597
CCN(CC)S(=O)(=O)c1cc(-c2nnc(-c3ccc(OC)c(OC)c3)o2)ccc1Cl	1010
COc1ccc(N2CCN(c3cc(SCC(=O)Nc4c(C)cc(C)cc4C)ncn3)CC2)cc1	983
Cc1cc(C)n(-c2ccc(C(=O)NC3CCCCC3)cn2)n1	918
O=C(NCCCn1ccnc1)C(=O)NC1CCCCC1	545

Structure (SMILES)	RP-LC retention time [s]
Cc1ccccc1-n1c(Cn2cnc3c(N)ncnc32)nc2cccc(C)c2c1=O	719
CCOc1cccc(CN2CCc3nc(N4CCN(c5ccccc5)CC4)ncc3C2)c1	785
Cc1ccsc1C(=O)NCC(=O)Nc1nc2ccccc2[nH]1	613
O=C(c1csc(-c2ccnc(N3CCOCC3)c2)n1)N1CCCCCC1	689
COc1cc(C2CC(=O)N(CC(=O)N3CCCCC3)c3ccccc3S2)cc(OC)c1OC (stereo not drawn)	871
CN(C)c1ccc(/C=C(\C#N)C(=O)c2ccccc2)cc1	1100
COc1ccc(N2CCN(c3ncccc3-c3nc(C)no3)CC2)cc1	736
COc1ccc(Br)cc1CNC(=O)C1CCCN(c2ccc(N3CCOCC3)nn2)C1 (stereo not drawn)	668
CCCS(=O)(=O)c1nc2ccc(NS(=O)(=O)c3ccc4c(c3)OCCO4)cc2s1	888
Cc1ccc(-n2ncc3c(C)nn(CC(=O)Nc4cc(C)on4)c(=O)c32)c(C)c1	775
Cn1c(N2CCC(C(=O)N3CCN(c4ccccc4F)CC3)CC2)cc(=O)n(C)c1=O	716
CCn1ccc2sc(C)c(C(=O)NCc3cccc(OC)c3)c2c1=O	785
CCOc1nccnc1NC1CCN(C(=O)Cc2cccs2)CC1	740
Cc1noc(C)c1Cc1c(C(=O)NCC23CCC=C2N(C)C(=O)CC3)noc1C (stereo not drawn)	768
CC(C)c1noc(COC2CCCN(C(=O)NCc3ccco3)C2)n1 (stereo not drawn)	774
CCN(CC)S(=O)(=O)c1ccc2nc(Cl)cnc2c1	950
CC(C)Cn1c(=O)c(-c2ccc(C(=O)N3CCN(C)CC3)cc2)nc2ccccc21	670
CC(=O)N1CCc2c([nH]c3ccccc23)C12C(=O)N(C)c1ccc(Br)cc12 (stereo not drawn)	857
Cc1oc(-c2[nH]ncc2C(=O)N2CCOCC2)cc1S(=O)(=O)Nc1ccccc1	655
Cc1ccc(N2C(=O)CN(S(=O)(=O)c3ccccc3)CC2(C)C(=O)NC2CCCC2)cc1 (stereo not drawn)	917
